Results: BindingDB's records for doi:10.1111/cbdd.12746 (Ahi Evran University, 2016)

molecular target: Serum paraoxonase/arylesterase 1 (Homo sapiens, UniProt P27169); experiment: Paraoxonase Activity Assay; settings: pH 10.5
Procedure: Paraoxonase enzyme activity was determined at 25 °C with paraoxon (1 mM) in 50 mM glycine-NaOH (pH 10.5) containing 1 mM CaCl2. The enzyme assay was based on the estimation of p-nitrophenol at 412 nm. Assays were performed using a spectrophotometer (CHEBIOS UV-VIS, Fullerton, CA). The molar extinction coefficient of paranitrophenol (Ɛ = 18 290/M/cm at pH 10.5) is used for thecalculation of enzyme activity. One enzyme unit was defined as the amount of enzyme that catalyzes the hydrolysis of 1 µmol of paraoxon at 25 °C (J. Chromatogr. B. 2006, 836:15-21).

Chain of Serum paraoxonase/arylesterase 1 (P27169 whole entry): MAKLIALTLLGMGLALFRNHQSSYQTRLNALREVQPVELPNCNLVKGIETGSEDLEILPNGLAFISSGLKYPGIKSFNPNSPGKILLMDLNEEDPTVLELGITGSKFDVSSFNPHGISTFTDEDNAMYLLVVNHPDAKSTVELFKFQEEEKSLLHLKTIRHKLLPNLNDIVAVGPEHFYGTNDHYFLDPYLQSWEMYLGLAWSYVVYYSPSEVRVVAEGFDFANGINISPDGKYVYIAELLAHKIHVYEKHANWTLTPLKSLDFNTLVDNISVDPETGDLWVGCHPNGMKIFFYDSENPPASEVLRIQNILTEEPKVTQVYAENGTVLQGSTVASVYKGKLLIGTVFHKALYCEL

Row | Structure (SMILES) | IC50 | Ki
1 | CC(=O)O[C@@]12CO[C@@H]1C[C@H](O)[C@@]1(C)C(=O)[C@H](O)C3=C(C)[C@@H](OC(=O)[C@H](O)[C@@H](NC(=O)OC(C)(C)C)c4ccccc4)C[C@@](O)([C@@H](OC(=O)c4ccccc4)[C@H]21)C3(C)C [CID148124] | 665 µM | 291 µM
2 | CC(=O)O[C@H]1C(=O)[C@@]2(C)[C@H]([C@H](OC(=O)c3ccccc3)[C@]3(O)C[C@H](OC(=O)[C@H](O)[C@@H](NC(=O)c4ccccc4)c4ccccc4)C(C)=C1C3(C)C)[C@]1(OC(C)=O)CO[C@@H]1C[C@@H]2O | 42 µM | 16.5 µM
3 | O=P1(NCCCl)OCCCN1CCCl (stereo not drawn) [N,3-bis(2-chloroethyl)-2-oxo-1,3,2-oxazaphosphinan-2-amine] | 23300 µM | 8970 µM
4 | COc1cc([C@@H]2c3cc4c(cc3[C@@H](O[C@@H]3O[C@@H]5CO[C@@H](C)O[C@H]5[C@H](O)[C@H]3O)[C@H]3COC(=O)[C@H]23)OCO4)cc(OC)c1O [4'-Demethylepipodophyllotoxin 9-(4,6-O-(R)-ethylidene-beta-D-glucopyranoside)] | 226 µM | 131 µM
